In patent publication US9040715B2 (priority 2008, dated 2015):
Where two headings read alike, the source gives them in different places.

What was measured:
Type in all cases: cell-based
APC103 cells = assay: Cytotoxicity by neutral red dye uptake after 3 days of treatment
Method: (§1) The antiviral activity of Compounds I-8 and I-9 was assessed in a 3-day assay using the stably-expressing HCV replicon cell lines, AVA5 (sub-genomic CONI, genotype 1b) and APC103 (genomic H77, genotype la) maintained as sub -confluent cultures on 96-well plates. Antiviral activity was determined by blot hybridization analysis of intracellular HCV RNA (normalized to the level of cellular B-actin RNA in each culture sample). A 3-fold suppression of HCV RNA and less than 2-fold suppression of cellular B-actin RNA was used as the cutoff. Cytotoxicity was assessed by neutral red dye uptake after 3 days of treatment. Dose response inhibition of HCV was also determined (FIG. 6). The nucleoside analogue 2′C-methyl cytidine (2′CmeC) was used as an assay activity control. EC50, EC90 and CC50 values (+/− standard deviations [S.D.]) were calculated by linear regression analysis. EC50 and EC90 are drug concentrations at which a 2-fold, or a 10-fold depression of intracellular HBV DNA or HCV RNA (relative to the average levels in untreated cultures), respectively, was observed. CC50 is the drug concentration at which a 2-fold lower level of neutral red dye uptake (relative to the average levels in untreated cultures) was observed.

AVA5 cells = assay: as above
Method: as §1

[1] = tested on: HCV replicon cell line AVA5 (sub-genomic CONI, genotype 1b); assay: Anti-HCV activity, 3-day HCV replicon assay, blot hybridization of intracellular HCV RNA; settings: for EC50: 2-fold depression of intracellular HCV RNA
Method: as §1

[2] = tested on: HCV replicon cell line APC103 (genomic H77, genotype la); assay: as above; settings: for EC50: read-out: EC50 (μM ± SD); for EC90: 10-fold depression of intracellular HCV RNA
Method: as §1

[3] = Cytotoxicity by neutral red dye uptake after 3 days of treatment; settings: human
Method: as §1

HCV replication = assay: Effect of combination treatments on HCV replication (CalcuSyn analysis); design: key to Type of Interaction: S, synergistic; settings: for EC50 / EC90: Hepatitis C virus; for EC50: read-out: Compound I-9 EC50; for EC90: read-out: Compound I-9 EC90
Source text: Compound I-9 was utilized in combination treatments with interferon (with and without RBV), and several representative STAT—C agents including 2′CmeC (nucleoside analogue), HCV-796 (non-nucleoside polymerase inhibitor), and VX-950 (protease inhibitor) (Table 13). For these studies, the compounds were mixed at equipotent (not necessarily equimolar) concentrations based on the monotherapy EC90 values. For example, 2′CmeC and Compound I-9 were mixed at equal molar concentrations, while 10-fold more Compound I-9 was used relative to VX-950 in that combination. The mixtures were then serially diluted for dose response analysis keeping the molar ratios constant. Corresponding monotherapies were also included. # Ribavirin (RBV) was held at a constant concentration of 30 uM for all serial dilutions of this combination. The overall type of interaction as determined by analysis with CalcuSyn (Biosoft, Inc.; Cambridge, UK) for each combination is indicated next to the corresponding EC50 and EC90 values in Table 13.
Analysis of combination therapies was performed using Calcusyn™ software (Biosoft, Inc.; Cambridge, UK). Two types of evaluations were performed (see FIG. 7). The top panels of FIG. 5 present CI-Fa (Combination Index—Fraction (of virus) affected) plots). For these plots, a combination index [CI] greater than 1.0 indicates antagonism and a CI less than 1.0 indicates synergism. Evaluations of synergy, additivity (summation), or antagonism at different levels of virus inhibition (e.g. […] (Fa=0.5) to 99% (Fa=0.99)) were performed and are provided by the plotted lines and points. Dotted lines denoting 1.96 standard deviations for significance evaluations can be added but are not included in this example for clarity of presentation. The bottom panels present conservative isobolograms. […] Three lines radiating out from the axes denote the expected (e.g., additive) EDC50, EDC75, and EDC90 values for drug combinations as calculated from the monotherapies. ED50, ED75, and ED90 values for the combinations that plot to the left (e.g., less than) of the corresponding lines indicate synergy, and values plotting to the right (e.g., greater than) of the corresponding lines indicate antagonism.

[4] = combination with 2′CmeC, molar ratio 1:1
[5] = combination with HCV-796, molar ratio 1:100
[6] = combination with IFN + 30 μM RBV (RBV held constant), molar ratio 1:1
[7] = combination with IFN, molar ratio 1:1
[8] = combination with VX-950, molar ratio 1:10
[9] = Hepatitis C virus, Ava5, read-out: EC90 (μM ± SD)

## C[C@@]1(O)[C@H](O)[C@@H](CO)O[C@H]1n1ccc(N)nc1=O [2′CmeC, 2′C-methyl cytidine, reference compound]
APC103 cells
  CC50: > 300 µM
AVA5 cells
  CC50: > 300 µM
[1]; AVA5
  SI (CC50/EC50): >150
  EC50: 2 ± 0.1 µM
[1]; AVA5, 10-fold depression of intracellular HCV RNA, read-out: EC90 (μM ± SD)
  EC90: 2.2 ± 0.2 µM
[2]; APC103
  SI (CC50/EC50): >136
  EC90: 6.4 ± 0.6 µM
[2]; APC103, 2-fold depression of intracellular HCV RNA
  EC50: 5.8 ± 0.4 µM

## CC(C(=O)Nc1cccc(Oc2ccccc2)c1)n1sc2ccccc2c1=O (stereo not drawn) [Compound I-9]
[3]; APC103
  CC50 at 3 days: > 100 µM
[3]; AVA5
  CC50 at 3 days: > 100 µM
HCV replication; None (monotherapy)
  EC50: 2600 ± 200 nM
  EC90: 9100 ± 500 nM
HCV replication; [4]
  EC50: 700 ± 100 nM
  EC90: 1800 ± 200 nM
  Type of Interaction: S
HCV replication; [5]
  EC50: 100 ± 10 nM
  EC90: 400 ± 30 nM
  Type of Interaction: S
HCV replication; [6]
  EC50: 200 ± 30 nM
  EC90: 700 ± 100 nM
  Type of Interaction: S
HCV replication; [7]
  EC50: 300 ± 30 nM
  EC90: 1000 ± 100 nM
  Type of Interaction: S
HCV replication; [8]
  EC50: 300 ± 20 nM
  EC90: 700 ± 100 nM
  Type of Interaction: S
HCV replication; with interferon, ribavirin, and the STAT-C agents
  Interaction in combination treatments: interacted favorably
[1]; AVA5
  SI (CC50/EC50): >42
[1]; [9]
  EC90: 2.8 ± 0.3 µM
[1]; Hepatitis C virus, AVA5
  EC50: 2.4 ± 0.2 µM
[2]; APC103
  SI (CC50/EC50): >35
[2]; Hepatitis C virus
  EC50: 8.5 ± 0.6 µM
[2]; Hepatitis C virus, APC103
  EC90: 9 ± 1 µM

## O=C(Cn1sc2ccccc2c1=O)Nc1cccc(Oc2ccccc2)c1 [Compound I-8]
[3]; APC103
  CC50 at 3 days: > 100 µM
[3]; AVA5
  CC50 at 3 days: > 100 µM
[1]; AVA5
  SI (CC50/EC50): >17
[1]; [9]
  EC90: 5.6 ± 0.7 µM
[1]; Hepatitis C virus, AVA5
  EC50: 5.8 ± 3.7 µM
[2]; APC103
  SI (CC50/EC50): >18
[2]; Hepatitis C virus
  EC50: 19 ± 2.3 µM
[2]; Hepatitis C virus, APC103
  EC90: 23 ± 1.8 µM
